{
  "source": "patent US20250268166A1",
  "about": "“ALS-INHIBITOR HERBICIDE TOLERANT BETA VULGARIS HYBRIDS WITH INCREASED HETEROSIS” (BAYER AKTIENGESELLSCHAFT, priority 2021, published 2025)",
  "system": "B. vulgaris plants comprising the BvALS_W569L allele",
  "experiment": "Sensitivity of B. vulgaris plants to ALS inhibitor herbicide (BvALS_W569L allele vs wild type allele)",
  "format": "in vivo, Beta vulgaris",
  "excerpt": "Beta vulgaris plants comprising the BvALS_W569L allele are less sensitive to an ALS inhibitor, more preferably it is at least 100 times less sensitive, more preferably, 500 times, even more preferably 1000 times and most preferably […] 2000 times than Beta vulgaris plants comprising the wild-type allele. Less sensitive when used herein may, vice versa, be seen as “more tolerable” or “more resistant”. Similarly, “more tolerable” or “more resistant” may, vice versa, be seen as “less sensitive”. For example, B. vulgaris plants comprising the BvALS_W569L allele are at least 2000 times less sensitive to the ALS inhibitor herbicide foramsulfuron (a member of the ALS inhibitor subclass “sulfonylurea herbicides”) compared to B. vulgaris plants comprising a BvALS wild type allele.",
  "data": [
    {"smiles": "COc1cc(OC)nc(NC(=O)NS(=O)(=O)c2cc(NC=O)ccc2C(=O)N(C)C)n1", "note": "[foramsulfuron]", "values": [
      {"measurement": "times less sensitive to the ALS inhibitor herbicide compared to B. vulgaris plants comprising a BvALS wild type allele", "result": "at least 2000 times"}
    ]}
  ]
}
